Experimental data: PMC10938783, “A novel pan-PI3K inhibitor KTC1101 synergizes with anti-PD-1 therapy by targeting tumor suppression and immune activation” (Molecular Cancer, 2024)

Tests used:
[1] = system: JFCR39 panel of 39 human tumor cell lines; test: JFCR39 panel growth inhibition, panel statistics; type: cell-based; settings: Homo sapiens; JFCR39 panel; read-out: mean GI50 across all 39 cell lines
Experimental: JFCR39 drug discovery system was used to measure the growth inhibitory activities and identify the target of KTC1101. The JFCR39 panel consists of 39 cell lines seeded in 96-well plates. After 48-h treatment with KTC1101, cell growth was measured using the sulforhodamine B assay. […] The deviation of log GI50 for each cell line from the average log GI50 across the JFCR39 panel was plotted as a fingerprint. MG-MID (mean of Log GI50 values) represents the average log GI50 for all 39 cell lines. The most sensitive and least sensitive cell lines were identified by calculating the difference in their log GI50 values (Range) and the difference between the most sensitive cell line and the average GI50 on the JFCR39 panel (Delta). The fingerprint of KTC1101 was compared with the fingerprints of reference compounds in the database. The Pearson correlation coefficient (r) was calculated (n = 39).

[2] = Plasma metabolic stability assay; type: in vitro ADME; settings: mouse plasma, 37°C, 120 min incubation
Experimental: 495 µL of plasma was placed in a 96-well plate and pre-incubated at 37°C for 5 min.

GI50 [1] [nM] | half-life at 1 µM [2] [min] | Structure (SMILES)
134 |  | COc1c(OCCCN2CCOCC2)ccc2c1N=C(NC(=O)c1cnc(N)nc1)N1CCN=C21 [Copanlisib, reference compound]
 | 37.8 | CCN(CC)CCOC(=O)c1ccc(N)cc1 [Procaine, reference compound]
